Laboratory results published in article doi:10.1101/2025.06.18.657655, “Fibulin-4 is highly expressed in metastatic breast cancer and can serve as a target of peptide-based imaging probes and experimental therapeutics” (bioRxiv, 2025).
Bridge positions count the residues as written; N and C are the ends. Square brackets hold non-standard residues; d marks the D form. Ends that are not written are not given here. * marks the point of attachment. Biotin = O=C1N[C@H]2[C@H](CS[C@H]2CCCCC(=O)*)N1

How the values were obtained:
[1] = system: MDA-MB-231-luc-GFP lung metastases; test: MDA-MB-231 experimental lung metastasis model, treatment; type: in vivo, mouse
Description: (§1) Animal studies were approved by the IACUC of UTHealth. Spontaneous cancer progression to metastases was modeled by injecting 2×10^4 4T1 cells into the mammary fat pad of 10-week-old female Balb/c mice (Jackson Laboratory) with a 31-gauge needle. Metastatic progression was monitored with bioluminescence imaging. For lung metastasis modeling, Balb/c mice were tail vein-injected with 2.5×10^5 4T1-luc WT or FBLN4-KO cells, C57BL/6 mice (Jackson) were tail vein-injected with 1×10^5 B16F10 cells, and athymic Nude-Foxn1nu (Envigo) mice were tail vein-injected with 1×10^5 MDA-MB-231-luc-GFP cells. For phage-peptide homing analysis, mice were injected into the tail vein with 5×10^10 transducing units (TU) of phage-BLMP6 ([6]). After 30 min of circulation, heart perfusion with 10 ml of PBS was performed and lung sections were processed. For PET imaging studies, mice were intravenously injected with 7.4 MBq (200 μCi, 5 nmol) of ^68Ga-labeled DOTA-BLMP6 and imaged 45–60 min later using Albira small-animal PET/CT scanner (Bruker After imaging, the mice were euthanized, the tissues of interest were harvested and probe homing was analyzed using a Cobra II automated gamma counter (Packard) and expressed as percentage of the injected dose per gram tissue (%ID/g tissue).
To test MMAE-BLMP6 efficacy for cancer suppression, we first used the B16F10 experimental lung metastasis model. Three MMAE-BLMP6 (50 ug) or PBS subcutaneous injections were done over days 1–6 and four additional MMAE-BLMP6 (100 ug) or PBS subcutaneous injections on days 8–18 after iv injection of B16F10-luc cells (Figure 5A). […] While vehicle-treated mice began dying on day 15, with most animals perishing by day 21, MMAE-BLMP6-treated mice only started showing metastases on day 15 by IVIS and survived 2 to 3 days longer (Figure 5A). In the MDA-MB-231-luc-GFP experimental lung metastasis model, a similar trend was observed (Figure 5C).

[2] = Stability in mouse serum; type: in vitro ADME; conditions: Figure S4B-C
Description: To test MMAE-BLMP6 efficacy in vivo, we first analyzed its stability in mouse serum. […] We then used the experimental lung metastasis model of B16F10 cells injected intravenously to produce lung metastases.

[3] = system: B16F10 lung metastases; test: B16F10 experimental lung metastasis model, treatment; type: in vivo, mouse; conditions: B16F10-luc iv
Description: as §1
To test MMAE-BLMP6 efficacy for cancer suppression, we first used the B16F10 experimental lung metastasis model. […]

[4] = system: invasive and metastatic cancer cells in tissue sections; test: Overlay assay on paraffin tissue sections
Description: Octet binding assays were performed with an Octet RED96 system (ForteBio) as described ([13]). Briefly, the peptides were loaded onto streptavidin resin-coated biosensors (Sartorius Lab, 18–5019) at a concentration of 20 ug/ml in 1x kinetic buffer for 5 min. […] For all experiments, Ka (1/Ms) and Kd (1/s) were measured. FortéBio’s data analysis software was employed to fit the binding curve to a 1:1 binding model in order to extract association and dissociation rates. Overlay assay on tissues was performed by incubating AZDye555-BLMP6 (12.5 ug/ml) for 2 hr and washing with PBS before fixation with 4% paraformaldehyde.

[5] = system: HEK293 cells ectopically expressing FBLN4; test: Fluorescent peptide binding to HEK293 cells; type: cell-based; conditions: Figure S2A
[6] = target: T1, FBLN4 (Mus musculus, UniProt Q9WVJ9); test: Affinity purification of FBLN4 from 4T1 cell extract on BLMP6-loaded beads; type: binding; conditions: biotinylated BLMP6 immobilized on streptavidin-coated beads; not isolated on control beads
T1 construct: proteins extracted from 4T1 cells were incubated with beads pre-loaded with BLMP6; endogenous in cells; host or cells: 4T1 mouse breast cancer cells
T1 sequence (Q9WVJ9 28-443): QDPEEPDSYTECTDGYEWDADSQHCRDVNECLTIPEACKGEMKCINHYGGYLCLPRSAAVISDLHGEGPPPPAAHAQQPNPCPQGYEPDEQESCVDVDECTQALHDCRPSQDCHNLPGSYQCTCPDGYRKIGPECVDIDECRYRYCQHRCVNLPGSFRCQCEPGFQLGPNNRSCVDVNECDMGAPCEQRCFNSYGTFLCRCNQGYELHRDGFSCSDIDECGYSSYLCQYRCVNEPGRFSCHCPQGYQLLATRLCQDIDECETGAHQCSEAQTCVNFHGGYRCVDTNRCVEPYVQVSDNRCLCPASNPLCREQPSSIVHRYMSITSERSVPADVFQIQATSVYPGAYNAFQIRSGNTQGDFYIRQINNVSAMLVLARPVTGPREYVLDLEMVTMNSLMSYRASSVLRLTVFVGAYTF
Description: To test if BLMP6 binds to FBLN4 in vitro, we used Octet to perform the biolayer interferometry assay. […] To confirm BLMP6 binding to FBLN4 expressed by cancer cells, proteins extracted from 4T1 cells were incubated with beads pre-loaded with BLMP6. […] To confirm BLMP6 binding to FBLN4 in a genetic model, we used CRISPR/Cas9 to make 4T1 FBLN4 knockout (KO) cells confirmed by RT-PCR (Figure 1E). FBLN4-KO and control 4T1-luc cells were grafted into mice, and once metastases were detected by bioluminescence, phage displaying BLMP6 ([6]) was injected. After 30 min of circulation, heart perfusion was performed, and lungs were recovered. Section histopathology confirmed metastasis formation in all lungs, indicating FBLN4 expression is not required for cancer cell colonization and growth at the secondary site.

[7] = target: FBLN4 of mouse 4T1 cancer cells (mouse (endogenous in 4T1)) (UniProt Q9WVJ9)
[8] = target: T2, Fibulin-4 protein (Abcam, 182808) (UniProt O95967 24-443); test: BLI
T2 chain: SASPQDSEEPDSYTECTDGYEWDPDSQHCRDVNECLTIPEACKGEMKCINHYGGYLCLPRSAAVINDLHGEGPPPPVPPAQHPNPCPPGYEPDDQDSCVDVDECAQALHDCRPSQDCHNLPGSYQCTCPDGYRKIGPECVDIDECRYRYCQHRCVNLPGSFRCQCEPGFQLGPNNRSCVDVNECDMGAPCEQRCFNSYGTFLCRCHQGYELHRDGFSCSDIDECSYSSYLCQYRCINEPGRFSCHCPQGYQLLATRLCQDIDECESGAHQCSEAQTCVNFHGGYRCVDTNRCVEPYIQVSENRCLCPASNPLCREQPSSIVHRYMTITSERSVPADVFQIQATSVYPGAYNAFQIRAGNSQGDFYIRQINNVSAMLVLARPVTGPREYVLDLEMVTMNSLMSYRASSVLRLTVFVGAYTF

For “MMAE-BLMP6: monomethyl auristatin E coupled to all-D BLMP6 via PEG4, valine-citrulline and PAB linker ([dC][dR][dA]G[dV]G[dR]G[dC]; disulfide 1-9 (inferred); also: MMAE coupled via PAB-Cit-Val-PEG4 linker, site not given here)”, the “survival beyond controls, one treated mouse” value ([1]; MDA-MB-231-luc-GFP iv, one of the treated mice) was 9 days, the “metastasis growth, bioluminescence imaging” value ([1]; MDA-MB-231-luc-GFP iv, sc treatment versus PBS, days 12 and 21) was “suppressed metastasis growth” and the “tolerability, clinical observation” value ([1]; athymic mice, 50 to 100 μg sc, at day 15, treatment interrupted 6 days, re-initiated at 15 μg daily) was “signs of sickness”. For the same molecule, the “time after which a secondary degradation peak appeared in mouse serum” value [2] was 6 h, the “stability in mouse serum, peaks observed” value ([2]; after 1 hr) was “single MMAE-BLMP6 peak was observed” and the “metastasis burden, bioluminescence analysis by IVIS” value ([3]; sc 50 ug x3 over days 1-6 and 100 ug x4 on days 8-18, versus PBS, at day 5) was “metastasis suppression”. The “survival longer than vehicle-treated mice” value ([3]; sc 50 ug x3 then 100 ug x4, vehicle mice began dying on day 15, most by day 21) was 2 to 3 days.

For “AZDye555-BLMP6 (AZDye555-CRAGVGRGC; bridge 1-9 (inferred))”, the “binding to lung sections from mice grafted with 4T1 cells” value ([4]; 12.5 ug/ml overlay, 2 hr, paraffin sections) was “selectively bound to metastatic lesions but not to normal lung”, the “binding to lung sections from mice with MDA-MB-231 experimental lung metastases” value ([4]; 12.5 ug/ml overlay, paraffin sections, N-cadherin IF) was “binds to a subpopulation of tumor cells expressing N-cadherin” and the “binding across human breast cancer tissue array cores” value ([4]; human FFPE tissue arrays: 50 primary, 40 metastatic, 10 adjacent control biopsies) was “largely concordant with N-cadherin expression”. For the same molecule, the “binding to HEK293 cells ectopically expressing FBLN4” value [5] was “confirmed to bind” and the “binding to non-transfected control HEK293 cells” value [5] was “not to non-transfected control cells”.

For “CRAGVGRGC (disulfide 1-9 (inferred)) [BLMP6, cyclic peptide … that homes to disseminating tumor cells]”, the “FBLN4 isolated from 4T1 cell proteins on peptide-loaded beads, immunoblotting with anti-FBLN4 antibodies” value [6] was “the predicted 49 kDa band was observed”.

B1: MMAE-BLMP6 (peptide)
peptide: [dC][dR][dA]G[dV]G[dR]G[dC]
modifications: disulfide 1-9 (inferred); also: MMAE coupled via PAB-Cit-Val-PEG4 linker, site not given here
In the case of B1, the IC50 of cell viability (CellTiter-Blue), 4T1 cells, 24 h after adding MMAE-BLMP6 [7] is reported as 0.5 µM.

Molecule Biotin-CRAGVGRGC (disulfide 1-9 (inferred)) [biotinylated BLMP6, cyclic peptide CRAGVGRGC] has a koff [8] of 3.18e-07 s⁻¹.
